Reference: PubChem BioAssay (NCI)
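Dose response: 5 concentrations. Exposure: 48 h. Format: 96-well plates. Endpoint: linear interpolation; highest concentration if not reached. TGI: concentration producing complete growth inhibition.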

How the values were obtained:
Test in all cases: growth of human tumour cells (NCI), 48 h
M19-MEL melanoma = system: M19-MEL melanoma
RXF-631 renal = system: RXF-631 renal
XF 498 CNS = system: XF 498 CNS
HOP-18 NSCLC = system: HOP-18 NSCLC
SNB-78 CNS = system: SNB-78 CNS

Structure (SMILES) | TGI (M19-MEL melanoma) | TGI (RXF-631 renal) | TGI (XF 498 CNS) | TGI (HOP-18 NSCLC) | TGI (SNB-78 CNS)
COc1ccc(/C=C/c2cc(OC)c(O[Si](C)(C)C(C)(C)C)c(OC)c2)cc1 | > 100 µM | > 100 µM | > 100 µM | – | –
Cc1cc2c3ccccc3n(C)c2c2c1C(=O)c1ccccc1C2=O | 10.3 µM | 98.5 µM | 35.7 µM | – | –
COc1c(OC(C)=O)cc2c(OC(C)=O)c1CC(C)CC(OC)C(O)C(C)/C=C(\C)C(OC(N)=O)C(OC)/C=C\C=C(/C)C(=O)N2 (centres undefined) | > 100 µM | > 100 µM | > 100 µM | > 100 µM | > 100 µM
COC(=O)CCC(NC(=S)N/N=C(\C)c1ccccn1)C(=O)OC (centres undefined) | > 100 µM | > 100 µM | > 100 µM | > 100 µM | –
Cc1ccc(SSCCCS(=O)O)cc1 | > 100 µM | > 100 µM | > 100 µM | > 100 µM | –
NC(=S)N/N=C(/CC(=O)c1ccc([N+](=O)[O-])cc1)C(=O)Nc1ncc([N+](=O)[O-])s1 | > 100 µM | > 100 µM | > 100 µM | – | > 100 µM
CC(=O)OC1(C#N)CC2OC1C1C2N1C(=O)c1ccccc1 (centres undefined) | > 100 µM | > 100 µM | > 100 µM | – | > 100 µM
CCSC1(SCC)CCN(C=NC(C)(C)C)C1 | > 100 µM | > 100 µM | > 100 µM | > 100 µM | > 100 µM
OC(c1ccccc1)(c1ccccc1)c1ccccn1 | > 100 µM | > 100 µM | > 100 µM | > 100 µM | > 100 µM
Nc1nnc2nc(CC(=O)/C=C/c3ccccc3)c(=O)[nH]n12 | > 100 µM | > 100 µM | > 100 µM | – | > 100 µM
C=C1C(=O)OC2CCCCC3OC3C12 (centres undefined) | 35.1 µM | 19.2 µM | 24.7 µM | 23.3 µM | 56.5 µM
N=C(N)n1ncc(Cl)c(Cl)c1=O | 3.77 µM | 3.36 µM | 3.86 µM | 2.86 µM | 3.98 µM
CC1=C(C(=O)Nc2cccc(C(F)(F)F)c2)C(c2ccc(O)cc2)C(C(=O)Nc2cccc(C(F)(F)F)c2)=C(C)N1 | 40.3 µM | 41.6 µM | 8.06 µM | – | 83.2 µM
C/C(CN1C(=O)c2ccccc2C1=O)=N\NS(=O)(=O)c1ccccc1 | > 100 µM | > 100 µM | – | > 100 µM | > 100 µM
CCc1cccc(C(C)CC)c1N=C(NC(=O)c1ccccc1C(=O)NC(=Nc1c(CC)cccc1C(C)CC)SC)SC (centres undefined) | > 100 µM | > 100 µM | > 100 µM | > 100 µM | > 100 µM
